Source: patent US4624960A, “Sedative having analgesic and bradycardiac properties” (Boehringer Ingelheim Vetmedica GmbH, priority 1984, dated 1986)
Structures can show the parent of a compound that is named as a salt.

Tests used:
Calf = assay: Premedication for surgical intervention (hernia umbilicalis) in calf; type: in vivo; conditions: 0.01 mg/kg i.v., operation 20 minutes after injection
Excerpt: (§1) The following table sets forth the correlation between activity and dosage of 2-[(2-bromo-6-fluorophenyl)-imino]-imidazolidine hydrochloride: […]

Poultry = assay: Sedation in poultry, activity vs dosage; type: in vivo
Excerpt: as §1

Bradycardiac Effect = type: in vivo
Horse = assay: Sedation and analgesia in horse, activity vs dosage; type: in vivo
Excerpt: as §1

[1] = Writhing Test (analgesic effect); type: in vivo
Pig = assay: Sedation and analgesia in pig, activity vs dosage; type: in vivo
Excerpt: as §1

Cattle (calf) = assay: Sedation and analgesia in cattle (calf), activity vs dosage; type: in vivo; conditions: for Effect: analgesia / Effect: sedation / Effect: sleep: cattle (calf)
Excerpt: as §1

[2] = Bradycardiac effect (general statement); conditions: in vivo

Cl.Fc1cccc(Br)c1N=C1NCCN1 [2-[(2-Bromo-6-fluorophenyl)-imino]-imidazolidine hydrochloride]
Effect: analgesia during and after the operation (Calf): good
Effect: sedation during and after the operation (Calf): good
Effect: sedation (Poultry; 2.0 mg/kg i.m.): strong sedation
Effect: sedation (Poultry; 2.0 mg/kg p.o.): good sedation
Effect: sedation (Poultry; 0.01-0.1 mg/kg i.m.): weak sedation
Effect: sedation (Poultry; 0.1-0.5 mg/kg i.m.): good sedation
Effect: sedation (Poultry; 0.5-1.0 mg/kg i.m.): very good sedation
Effect: sedation (Poultry; 0.5-1.0 mg/kg p.o.): good sedation
ED60 (Bradycardiac Effect): 3 µg/kg
Effect: analgesia (Horse; 0.03 mg/kg i.m.): no
Effect: sedation (Horse; 0.03 mg/kg i.m.): light sedation
Effect: analgesia (Horse; 0.03 mg/kg i.v.): slight
Effect: sedation (Horse; 0.03 mg/kg i.v.): light sedation
Effect: analgesia (Horse; 0.06 mg/kg i.m.): rather weaker analgesia
Effect: sedation (Horse; 0.06 mg/kg i.m.): moderate sedation
Effect: analgesia (Horse; 0.06 mg/kg i.v.): good
Effect: sedation (Horse; 0.06 mg/kg i.v.): strong sedation
Effect: analgesia (Horse; 0.07 mg/kg i.v.): good
Effect: sedation (Horse; 0.07 mg/kg i.v.): strong sedation
Effect: analgesia (Horse; 0.08 mg/kg i.m.): good analgesia
Effect: sedation (Horse; 0.08 mg/kg i.m.): strong sedation
ED50 [1]: 4 µg/kg
Effect: analgesia (Pig; 0.01-0.03 mg/kg i.m.): weak
Effect: sedation (Pig; 0.01-0.03 mg/kg i.m.): weak sedation
Effect: sedation (Pig; 0.01-1.0 mg/kg i.m.): strong sedation
Effect: analgesia (Pig; 0.03-0.06 mg/kg i.m.): rather weaker
Effect: sedation (Pig; 0.03-0.06 mg/kg i.m.): good sedation
Effect: analgesia (Pig; 0.06-0.1 mg/kg i.m.): good
Effect: sedation (Pig; 0.06-0.1 mg/kg i.m.): very good sedation
Effect: depth of sedation (Cattle (calf); calf, 0.04 mg/kg p.o.): very good depth of sedation
Effect: rousability (Cattle (calf); calf, 0.04 mg/kg p.o.): animal cannot be roused
Effect: analgesia (Cattle (calf); 0.006 mg/kg i.v., i.m.): no analgesia
Effect: sedation (Cattle (calf); 0.006 mg/kg i.v., i.m.): low-level sedation
Effect: sedation (Cattle (calf); 0.008 mg/kg i.m.): good sedation
Effect: sleep (Cattle (calf); 0.008 mg/kg i.m.): deep
Effect: sedation (Cattle (calf); 0.009 mg/kg i.m.): very good sedation
Effect: sleep (Cattle (calf); 0.009 mg/kg i.m.): deep sleep
Effect: analgesia (Cattle (calf); 0.009 mg/kg i.m., i.v. result: not total): as with i.v.
Effect: analgesia (Cattle (calf); 0.009 mg/kg i.v.): not total
Effect: sedation (Cattle (calf); 0.009 mg/kg i.v.): very good sedation
Effect: sleep (Cattle (calf); 0.009 mg/kg i.v.): deep sleep
Effect: analgesia (Cattle (calf); 0.01 mg/kg i.m.): moderate analgesia
Effect: sedation (Cattle (calf); 0.01 mg/kg i.m.): very good sedation
Effect: analgesia (Cattle (calf); 0.01 mg/kg i.v.): moderate analgesia
Effect: sedation (Cattle (calf); 0.01 mg/kg i.v.): very good sedation

Clc1cccc(Cl)c1N=C1NCCN1 [2-[(2,6-Dichlorophenyl)-imino]-imidazolidine.HCl, reference compound]
ED60 (Bradycardiac Effect): 10 µg/kg
ED50 [1]: 17 µg/kg

Fc1cccc(Br)c1N=C1NCCN1 [2-[(2-bromo-6-fluorophenyl)-imino]-imidazolidine]
bradycardiac effect [2]: marked bradycardiac effect
